Where “and” joins values, the source holds several entries; their conditions need not be identical. Equal values may be shown once.
Columns and labels:
H1 (rat) = H1 (rat) (Rattus norvegicus, UniProt P31390); assay: H1 (rat) competitive binding assay; conditions: Table 7A; Ki in nM
Description: (§1) Binding assays were performed using various sleep-inducing agents and derivatives selected from those listed in Table 1 in competitive binding assays with known standards for the H1 histamine receptor, and the M1, M2, and M3 muscarinic receptors, alpha 1 and alpha 2 receptors, D1 and D2 receptors, 5HT2a, 5HT2b, 5HT2c, 5HT2c, and 5HT7 receptors.
(§2) The histamine H1 assays are described in Chang, et al., Heterogeneity of Histamine H1-Receptors: Species Variation in [^3H]Mepyramine Binding of Brain Membranes. Journal of Neurochemistry. 32: 1653-1663 (1979); Martinez-Mir, M. I., Pollard, H., Moreau, J., et al. Three Histamine Receptors (H1, H2, and H3) Visualized in the Brain of Human and Non-Human Primates. Brain Res. 526: 322-327 (1990); Haaksma, E. E. J., Leurs, R. and Timmerman, H. Histamine Receptors: Subclasses and Specific Ligands. Pharmac. Ther. 47: 73-104 (1990). The muscarinic assays are described in Buckley, N. J., Bonner, T. I., Buckley, C. M., and Brann, M. R. Antagonist Binding Properties of Five Cloned Muscarinic Receptors Expressed in CHO-K1 Cells. Mol. Pharmacol. 35: 469-476 (1989). The assays were performed according to the preceding articles, with the following modifications. Chemical reagents in the following were obtained from Sigma, St. Louis, Mo.

D1 (h) = D1 (h) (Homo sapiens, UniProt P21728); assay: Dopamine D1 (human recombinant) binding assay; conditions: Table 7A; unit inferred
Chain of D1 (h) (P21728 whole entry): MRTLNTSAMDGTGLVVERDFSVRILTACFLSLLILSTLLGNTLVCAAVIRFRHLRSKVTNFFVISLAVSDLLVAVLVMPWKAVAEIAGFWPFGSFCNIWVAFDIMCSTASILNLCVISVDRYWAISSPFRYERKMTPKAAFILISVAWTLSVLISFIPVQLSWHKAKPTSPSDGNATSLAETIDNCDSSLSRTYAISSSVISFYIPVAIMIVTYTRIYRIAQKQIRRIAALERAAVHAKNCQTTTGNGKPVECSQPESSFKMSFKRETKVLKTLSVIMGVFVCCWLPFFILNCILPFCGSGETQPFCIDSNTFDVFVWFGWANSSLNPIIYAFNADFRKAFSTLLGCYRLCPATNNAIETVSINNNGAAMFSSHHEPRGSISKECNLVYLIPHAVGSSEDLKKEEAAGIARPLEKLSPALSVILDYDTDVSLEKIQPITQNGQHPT
Description: Dopamine, D1 (human recombinant) binding assay was performed according to published procedures. See, e.g., Jarvie, et al. J. Recept Res., 13(1-4): 573-90 (1993); and Billard, et al. Life Sciences, 35(18): 1885-93 (1984), with modifications

D2 (h) = D2 (h) (Homo sapiens, UniProt P14416); assay: Dopamine D2 binding assay; conditions: Table 7A; unit inferred
Chain of D2 (h) (P14416 whole entry): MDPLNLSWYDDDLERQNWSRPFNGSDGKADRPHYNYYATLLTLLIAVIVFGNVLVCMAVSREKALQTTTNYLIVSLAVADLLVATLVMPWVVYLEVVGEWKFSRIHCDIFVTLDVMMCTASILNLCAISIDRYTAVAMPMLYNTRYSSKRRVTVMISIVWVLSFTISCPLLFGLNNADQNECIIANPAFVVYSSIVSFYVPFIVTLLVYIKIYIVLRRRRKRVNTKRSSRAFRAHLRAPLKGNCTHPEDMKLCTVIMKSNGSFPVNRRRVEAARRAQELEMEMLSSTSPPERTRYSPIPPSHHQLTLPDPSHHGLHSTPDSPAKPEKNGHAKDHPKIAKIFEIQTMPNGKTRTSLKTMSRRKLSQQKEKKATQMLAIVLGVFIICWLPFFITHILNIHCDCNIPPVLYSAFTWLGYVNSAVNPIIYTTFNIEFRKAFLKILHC

[1] = target: T1, human recombinant M3 expressed in CHO cells (Homo sapiens, UniProt P20309); assay: M3 muscarinic receptor binding assay; conditions: Table 7A, third line of column M1 M2 M3
T1 construct: purchased PerkinElmer, Inc., Wellesley, Mass; host or cells: CHO cells
T1 sequence (P20309 whole entry): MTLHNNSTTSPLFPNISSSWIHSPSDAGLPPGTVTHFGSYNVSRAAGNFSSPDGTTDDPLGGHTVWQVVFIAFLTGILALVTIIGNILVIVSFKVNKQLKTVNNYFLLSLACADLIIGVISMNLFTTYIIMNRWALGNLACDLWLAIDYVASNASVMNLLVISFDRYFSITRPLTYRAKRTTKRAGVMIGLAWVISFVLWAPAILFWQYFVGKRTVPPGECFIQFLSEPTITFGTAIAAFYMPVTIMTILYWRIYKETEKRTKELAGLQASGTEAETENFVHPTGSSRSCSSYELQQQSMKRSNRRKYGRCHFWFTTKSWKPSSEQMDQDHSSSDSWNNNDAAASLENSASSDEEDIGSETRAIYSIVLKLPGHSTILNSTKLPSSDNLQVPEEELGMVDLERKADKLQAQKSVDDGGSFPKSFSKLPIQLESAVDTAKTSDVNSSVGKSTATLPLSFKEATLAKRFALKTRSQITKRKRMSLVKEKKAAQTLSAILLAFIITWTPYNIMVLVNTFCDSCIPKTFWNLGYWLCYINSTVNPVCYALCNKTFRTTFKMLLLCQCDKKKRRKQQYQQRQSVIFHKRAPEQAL

[2] = target: T2, human recombinant M1 expressed in CHO cells (Homo sapiens, UniProt P11229); assay: M1 muscarinic receptor binding assay; conditions: Table 7A, first line of column M1 M2 M3
T2 construct: purchased PerkinElmer, Inc., Wellesley, Mass; host or cells: CHO cells
T2 sequence (P11229 1-460): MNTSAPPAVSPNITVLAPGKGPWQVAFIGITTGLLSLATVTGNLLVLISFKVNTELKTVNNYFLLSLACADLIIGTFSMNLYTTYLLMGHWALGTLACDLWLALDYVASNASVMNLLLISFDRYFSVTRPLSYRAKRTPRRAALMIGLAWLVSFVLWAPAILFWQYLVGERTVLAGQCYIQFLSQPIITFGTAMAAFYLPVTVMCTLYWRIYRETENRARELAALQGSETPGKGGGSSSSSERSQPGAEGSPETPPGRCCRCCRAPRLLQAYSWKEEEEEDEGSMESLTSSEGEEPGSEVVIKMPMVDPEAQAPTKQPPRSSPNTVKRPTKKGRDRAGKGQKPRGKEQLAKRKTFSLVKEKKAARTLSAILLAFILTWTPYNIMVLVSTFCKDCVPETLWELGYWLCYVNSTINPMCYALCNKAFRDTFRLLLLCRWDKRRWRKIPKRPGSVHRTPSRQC

5HT2a (rat) = 5HT2a (rat) (Rattus norvegicus, UniProt P14842); assay: 5HT2a (rat) binding assay; conditions: Table 7A; unit inferred
Chain of 5HT2a (rat) (P14842 whole entry): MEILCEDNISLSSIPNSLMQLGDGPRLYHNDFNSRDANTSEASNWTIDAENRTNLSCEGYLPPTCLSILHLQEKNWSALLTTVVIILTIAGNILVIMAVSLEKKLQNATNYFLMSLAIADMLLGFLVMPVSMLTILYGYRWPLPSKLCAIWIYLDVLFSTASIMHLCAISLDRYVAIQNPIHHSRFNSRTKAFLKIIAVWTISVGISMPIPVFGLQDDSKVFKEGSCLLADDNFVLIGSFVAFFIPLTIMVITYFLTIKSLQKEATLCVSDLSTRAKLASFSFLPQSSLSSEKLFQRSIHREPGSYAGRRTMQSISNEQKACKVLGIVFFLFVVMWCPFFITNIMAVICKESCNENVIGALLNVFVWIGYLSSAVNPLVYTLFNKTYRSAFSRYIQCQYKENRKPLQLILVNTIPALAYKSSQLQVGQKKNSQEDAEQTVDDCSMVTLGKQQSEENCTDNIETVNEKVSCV

Alpha 1 = Alpha 1 binding assay; conditions: Table 7A; unit inferred
Description: as §1

D3 = D3 (Homo sapiens, UniProt P35462); assay: D3 binding; conditions: Table 7A, printed in column D2 (h); unit inferred
Chain of D3 (P35462 whole entry): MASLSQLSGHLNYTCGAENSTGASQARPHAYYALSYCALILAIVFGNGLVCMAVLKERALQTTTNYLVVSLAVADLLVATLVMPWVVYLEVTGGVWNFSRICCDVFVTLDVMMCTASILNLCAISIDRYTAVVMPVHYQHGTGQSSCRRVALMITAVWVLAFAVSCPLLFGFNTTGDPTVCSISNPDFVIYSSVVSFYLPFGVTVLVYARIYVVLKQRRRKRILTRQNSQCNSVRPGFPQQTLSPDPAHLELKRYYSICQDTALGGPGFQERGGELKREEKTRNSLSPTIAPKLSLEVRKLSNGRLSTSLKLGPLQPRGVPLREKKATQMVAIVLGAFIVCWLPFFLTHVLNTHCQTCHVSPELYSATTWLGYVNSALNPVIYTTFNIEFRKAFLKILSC

Alpha 1B (h) = target: T3, Alpha 1B (h) (Homo sapiens, UniProt P35368); assay: Alpha 1B (h) binding assay; conditions: Table 7A; unit inferred
T3 sequence (P35368 1-520): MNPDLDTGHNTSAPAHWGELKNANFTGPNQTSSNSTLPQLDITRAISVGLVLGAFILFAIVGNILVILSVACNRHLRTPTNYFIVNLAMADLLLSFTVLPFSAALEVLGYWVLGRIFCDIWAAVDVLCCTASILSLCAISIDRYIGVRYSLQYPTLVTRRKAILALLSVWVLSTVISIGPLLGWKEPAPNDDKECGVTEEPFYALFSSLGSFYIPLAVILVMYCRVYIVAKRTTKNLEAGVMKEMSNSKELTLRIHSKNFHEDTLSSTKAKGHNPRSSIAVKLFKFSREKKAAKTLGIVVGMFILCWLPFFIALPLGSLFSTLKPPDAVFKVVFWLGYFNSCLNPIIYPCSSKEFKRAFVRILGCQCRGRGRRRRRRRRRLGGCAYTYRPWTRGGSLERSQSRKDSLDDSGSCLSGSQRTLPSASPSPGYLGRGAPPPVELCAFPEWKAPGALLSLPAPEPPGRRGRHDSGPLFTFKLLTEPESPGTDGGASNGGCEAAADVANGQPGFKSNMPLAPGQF
Description: as §1

5HT2b (h) = 5HT2b (h) (Homo sapiens, UniProt P41595); assay: 5HT2b (h) binding assay; conditions: Table 7B; unit inferred
Chain of 5HT2b (h) (P41595 whole entry): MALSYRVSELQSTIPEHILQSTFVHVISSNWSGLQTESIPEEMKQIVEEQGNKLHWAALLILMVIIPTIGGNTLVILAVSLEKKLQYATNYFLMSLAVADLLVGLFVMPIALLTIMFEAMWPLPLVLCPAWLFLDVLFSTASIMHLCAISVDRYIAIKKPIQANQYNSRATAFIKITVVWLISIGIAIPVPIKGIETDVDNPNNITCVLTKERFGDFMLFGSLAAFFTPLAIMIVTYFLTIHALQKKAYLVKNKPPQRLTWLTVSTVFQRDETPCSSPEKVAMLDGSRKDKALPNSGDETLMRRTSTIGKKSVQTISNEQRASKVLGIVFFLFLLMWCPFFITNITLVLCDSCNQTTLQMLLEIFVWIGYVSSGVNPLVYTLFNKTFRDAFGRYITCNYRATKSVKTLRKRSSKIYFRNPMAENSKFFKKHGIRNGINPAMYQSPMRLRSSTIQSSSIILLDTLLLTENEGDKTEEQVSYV

5HT2a (h R) = 5HT2a (h R) (Homo sapiens, UniProt P28223); assay: 5HT2a (h R) binding assay; conditions: Table 7B; unit inferred
Chain of 5HT2a (h R) (P28223 whole entry): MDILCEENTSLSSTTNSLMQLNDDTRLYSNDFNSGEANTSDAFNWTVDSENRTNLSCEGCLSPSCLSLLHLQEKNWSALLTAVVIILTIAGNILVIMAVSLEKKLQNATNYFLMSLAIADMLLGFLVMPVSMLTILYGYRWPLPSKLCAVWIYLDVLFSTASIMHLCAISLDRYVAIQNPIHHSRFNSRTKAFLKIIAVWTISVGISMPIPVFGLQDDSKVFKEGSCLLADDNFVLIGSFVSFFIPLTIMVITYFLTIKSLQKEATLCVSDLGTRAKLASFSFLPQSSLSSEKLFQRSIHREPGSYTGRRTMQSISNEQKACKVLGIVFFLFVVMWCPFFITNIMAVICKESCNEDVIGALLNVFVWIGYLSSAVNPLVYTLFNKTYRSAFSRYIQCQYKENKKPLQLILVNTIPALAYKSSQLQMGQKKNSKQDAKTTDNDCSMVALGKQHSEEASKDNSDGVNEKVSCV
Description: as §1
(§3) In vitro binding assays are used to determine 5HT2a binding. These binding assays measure the ability of benzisoxazole analogs to displace known standards from the 5HT2a, 5HT2b, 5HT2c, and 5HT7. A decrease in the binding of the compounds to the M1-M3 receptors, relative to the binding of the compound to the 5HT2a receptor, is an indication of the greater specificity of the compound for the 5HT2a receptor over the muscarinic receptor. […] 5HT2a binding is determined as described for example in British Journal of Pharmacology (1995) 115, 622-628.

5HT7 (h) = 5HT7 (h) (Homo sapiens, UniProt P34969); assay: 5HT7 (h) binding assay; conditions: Table 7B; unit inferred
Chain of 5HT7 (h) (P34969 whole entry): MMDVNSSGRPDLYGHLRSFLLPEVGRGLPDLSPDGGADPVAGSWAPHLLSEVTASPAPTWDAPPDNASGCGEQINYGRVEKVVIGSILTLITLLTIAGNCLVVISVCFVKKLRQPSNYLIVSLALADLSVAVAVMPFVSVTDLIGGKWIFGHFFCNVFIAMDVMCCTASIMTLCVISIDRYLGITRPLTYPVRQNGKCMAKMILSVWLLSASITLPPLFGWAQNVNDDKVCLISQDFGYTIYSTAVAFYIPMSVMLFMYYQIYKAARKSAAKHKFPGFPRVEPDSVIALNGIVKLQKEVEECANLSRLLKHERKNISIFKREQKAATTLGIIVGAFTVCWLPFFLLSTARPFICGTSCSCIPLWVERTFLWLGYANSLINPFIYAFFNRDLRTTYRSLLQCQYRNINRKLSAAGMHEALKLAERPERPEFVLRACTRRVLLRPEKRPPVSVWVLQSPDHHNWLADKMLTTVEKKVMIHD
Description: as §1, §3

H1 (hr) [3] = target: T4, H1 (hr) (Homo sapiens, UniProt P35367); assay: H1 (hr) Cerep binding assay; conditions: Table 7A; Ki in nM
T4 construct: Novascreen, MDS, Cerep (assay providers)
T4 sequence (P35367 whole entry): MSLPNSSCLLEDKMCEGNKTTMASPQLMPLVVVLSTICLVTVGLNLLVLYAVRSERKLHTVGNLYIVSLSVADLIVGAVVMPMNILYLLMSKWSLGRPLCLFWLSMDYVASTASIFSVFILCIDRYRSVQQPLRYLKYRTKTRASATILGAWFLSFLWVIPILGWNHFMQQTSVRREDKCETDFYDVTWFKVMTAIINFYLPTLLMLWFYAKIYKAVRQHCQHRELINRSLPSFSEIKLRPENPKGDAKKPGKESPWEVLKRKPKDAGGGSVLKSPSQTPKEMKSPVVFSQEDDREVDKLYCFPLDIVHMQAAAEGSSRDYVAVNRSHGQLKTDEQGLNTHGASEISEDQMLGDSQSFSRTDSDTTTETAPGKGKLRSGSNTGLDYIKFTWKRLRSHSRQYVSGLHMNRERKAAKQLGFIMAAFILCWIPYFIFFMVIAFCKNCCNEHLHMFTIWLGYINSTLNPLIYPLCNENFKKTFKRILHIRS
Description: as §1, §2

H1 (hr) [4] = target: T4, H1 (hr); assay: H1 (hr) MDS binding assay; conditions: Table 7A; Ki in nM
Description: as §1, §2

Chain of H1 (rat) (P31390 whole entry): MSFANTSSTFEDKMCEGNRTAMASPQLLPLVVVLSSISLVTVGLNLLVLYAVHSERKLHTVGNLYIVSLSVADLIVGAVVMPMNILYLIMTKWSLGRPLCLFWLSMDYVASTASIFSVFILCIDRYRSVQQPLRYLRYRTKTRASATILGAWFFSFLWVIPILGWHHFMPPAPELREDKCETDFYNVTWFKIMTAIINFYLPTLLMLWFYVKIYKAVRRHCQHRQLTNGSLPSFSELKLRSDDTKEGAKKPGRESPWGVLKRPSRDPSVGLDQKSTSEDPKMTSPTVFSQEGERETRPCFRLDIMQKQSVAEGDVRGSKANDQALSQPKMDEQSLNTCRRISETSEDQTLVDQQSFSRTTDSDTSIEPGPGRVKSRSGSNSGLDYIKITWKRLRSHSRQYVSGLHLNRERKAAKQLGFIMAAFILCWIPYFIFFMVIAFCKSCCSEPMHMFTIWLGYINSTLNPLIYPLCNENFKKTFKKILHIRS

Ki (H1 (rat)) [nM]	Ki (D1 (h)) [nM]	Ki (D2 (h))	Ki [1] [µM]	Ki [2] [µM]	Ki (5HT2a (rat)) [nM]	Ki (Alpha 1) [nM]	Ki (D3) [nM]	Ki (Alpha 1B (h)) [nM]	Ki (5HT2b (h))	Ki (5HT2a (h R)) [nM]	Ki (5HT7 (h)) [µM]	Ki (H1 (hr) [3]) [nM]	Ki (H1 (hr) [4]) [nM]	Compound
110	300	107 nM	> 10	> 10	8.2									CC(C)c1cc2c(s1)Nc1ccccc1N=C2N1CCN(CC(C)(C)C(=O)O)CC1 [Compound 94]
95.6	129	2480 nM	> 10	> 10	60.7	2060								Cc1cc2c(s1)Nc1ccccc1N=C2N1CCN(CCC(=O)O)CC1 [Compound 92]
55.5	565	196 nM	> 10	> 10	10.4		226							CCc1cc2c(s1)Nc1ccccc1N=C2N1CCN(CC(C)(C)C(=O)O)CC1 [Compound 90]
53	278	202 nM	> 10	> 10	13.3	1960								Cc1cc2c(s1)Nc1ccccc1N=C2N1CCN(CC2(C(=O)O)CC2)CC1 [Compound 91]
34	1550	1100 nM and 533 nM and 847 nM	> 10	> 10	14.5			2100	151 nM and 270 nM	200	4.08	210	44	Cc1cc2c(s1)Nc1ccccc1N=C2N1CCN(CC(C)(C)C(=O)O)CC1 [Compound 46]

— patent US7807828B2, “Olanzapine analogs and methods of use thereof” (Hypnion, Inc., priority 2005, dated 2010)
